Earlier results in patent US9456994B2, “Efficient process for the preparation of lycopene containing oleoresin and lycopene crystals for human consumption” (OMNIACTIVE HEALTH TECHNOLOGIES LIMITED, priority 2011, dated 2016).

Tests used:
[1] = organic solvents

CC(C)=CCC/C(C)=C/C=C/C(C)=C/C=C/C(C)=C/C=C/C=C(C)/C=C/C=C(C)/C=C/C=C(\C)CCC=C(C)C [lycopene, Lycopene]
lycopene lost (heated at 100 degree C in the presence of carbon dioxide): 5% | lycopene degraded (heated at 100 degree C in the presence of oxygen): More than 30% | solubility [1]: soluble in chloroform, hexane, benzene, carbon disulphide, acetone, petroleum ether
